From the CheMixHub viscosity set

Test: xn = mol fraction of the nth substance listed

ClC(Cl)Cl + CS(C)=O
viscosity [mPa·s], 101.33 kPa
Conditions | x2 = 0.0955 | x2 = 0.2039 | x2 = 0.3021 | x2 = 0.4068 | x2 = 0.5023 | x2 = 0.6044 | x2 = 0.7038 | x2 = 0.8047 | x2 = 0.9014
298.15 K | 0.642 | 0.839 | 1.018 | 1.227 | 1.365 | 1.498 | 1.611 | 1.729 | 1.842
308.15 K | 0.576 | 0.738 | 0.882 | 1.057 | 1.171 | 1.276 | 1.366 | 1.458 | 1.545
318.15 K | 0.527 | 0.682 | 0.8 | 0.915 | 1.011 | 1.097 | 1.171 | 1.246 | 1.309

O=C(O)CCl + Oc1ccccc1
323.15 K, 101 kPa
Conditions | viscosity [mPa·s]
x2 = 0.1128 | 3.125
x2 = 0.1918 | 3.113
x2 = 0.26 | 3.103
x2 = 0.3059 | 3.112
x2 = 0.405 | 3.121
x2 = 0.5113 | 3.142
x2 = 0.606 | 3.203
x2 = 0.6735 | 3.242
x2 = 0.7037 | 3.277
x2 = 0.7567 | 3.308
x2 = 0.8216 | 3.338
x2 = 0.903 | 3.353

ClC(Cl)Cl + CCO
Conditions | viscosity [mPa·s]
303 K, 101.3 kPa, x1 = 0.1074 | 0.9539
303 K, 101.3 kPa, x1 = 0.2992 | 0.8095
303 K, 101.3 kPa, x1 = 0.5029 | 0.6591
303 K, 101.3 kPa, x1 = 0.6978 | 0.5679
303 K, 101.3 kPa, x1 = 0.9003 | 0.5256
303.15 K, 101 kPa, x2 = 0.0811 | 0.514
303.15 K, 101 kPa, x2 = 0.1571 | 0.5247
303.15 K, 101 kPa, x2 = 0.2368 | 0.544
303.15 K, 101 kPa, x2 = 0.3342 | 0.5774
303.15 K, 101 kPa, x2 = 0.4545 | 0.6351
303.15 K, 101 kPa, x2 = 0.5514 | 0.697
303.15 K, 101 kPa, x2 = 0.6372 | 0.7617
303.15 K, 101 kPa, x2 = 0.7644 | 0.8683
303.15 K, 101 kPa, x2 = 0.7943 | 0.8927
303.15 K, 101 kPa, x2 = 0.8607 | 0.9412
303.15 K, 101 kPa, x2 = 0.9211 | 0.9752
303.15 K, 101.3 kPa, x2 = 0.186 | 0.514
303.15 K, 101.3 kPa, x2 = 0.3257 | 0.5247
303.15 K, 101.3 kPa, x2 = 0.4457 | 0.544
303.15 K, 101.3 kPa, x2 = 0.5653 | 0.5774
303.15 K, 101.3 kPa, x2 = 0.6834 | 0.6351
303.15 K, 101.3 kPa, x2 = 0.761 | 0.697
303.15 K, 101.3 kPa, x2 = 0.8198 | 0.7617
303.15 K, 101.3 kPa, x2 = 0.8937 | 0.8683
303.15 K, 101.3 kPa, x2 = 0.9091 | 0.8927
303.15 K, 101.3 kPa, x2 = 0.9412 | 0.9412
303.15 K, 101.3 kPa, x2 = 0.968 | 0.9752
311 K, 101.3 kPa, x1 = 0.1074 | 0.8217
311 K, 101.3 kPa, x1 = 0.2992 | 0.7021
311 K, 101.3 kPa, x1 = 0.5029 | 0.5849
311 K, 101.3 kPa, x1 = 0.6978 | 0.5169
311 K, 101.3 kPa, x1 = 0.9003 | 0.4864
319 K, 101.3 kPa, x1 = 0.1074 | 0.7107
319 K, 101.3 kPa, x1 = 0.2892 | 0.6097
319 K, 101.3 kPa, x1 = 0.5029 | 0.5234
319 K, 101.3 kPa, x1 = 0.6978 | 0.4922
319 K, 101.3 kPa, x1 = 0.9003 | 0.4517
